This is an account of results in patent publication US20090298912A1, “Arginase II: A Target treatment of aging heart and heart failure” (The Johns Hopkins University, priority 2005, published 2009).

The subject of assay [1] is isolated mouse myocytes. Briefly: Contractility (sarcomere shortening) in isolated mouse myocytes (WT, NOS1 and NOS3 deficient). The assay is classed as cell-based. The source says:
Animals: Mice (8 to 10 weeks old) homozygous for targeted disruption of the NOS1 gene (NOS1^−/−, n=3), the NOS3 gene (NOS3^−/−, n=3), and wild-type control mice (WT, C57BL6J, n=3) were purchased from Jackson Laboratories. All rats (Wistar, 11 to 14 weeks old) were purchased from Harlan Laboratory. All protocols conformed to the current National Institutes of Health and American Physiological Society Guidelines for the Use and Care of Laboratory Animals.
(§1) Measurement of Contractility in Isolated Rat and Mouse Myocytes: Both rat and mouse myocytes were isolated by enzymatic digestion as previously described (2, 3). Myocytes were transferred to a lucite chamber on the stage of an inverted microscope (Nikon TE 200), continuously superfused with Tyrodes containing 1.0 mM Ca^2+, and stimulated at 1 Hz. Sarcomere length was recorded with an IonOptix intensified charged coupled device camera (iCCD) camera. Change in average sarcomere length was determined by fast Fourier transform of the Z-line density trace to the frequency domain (IonOptix, Milton, Mass.) as previously described (2, 3).
(§2) Data Analysis and Statistics: All data are presented as mean±SEM, with N being indicated for each experimental protocol. For dose responses, data was fitted using the software program Prism 4 (Graphpad) and Emax and EC50 calculated. Statistical analysis was performed using one-way analysis of variance with post test or unpaired Student t test where appropriate.

Assay [2] has as its system isolated rat cardiac myocytes. Briefly: Contractility (sarcomere shortening) in isolated rat myocytes. The assay is classed as cell-based. Particulars: for Emax, increase in myocardial contractility (sarcomere shortening) / EC50: dose response; for EC50: log value, read-out: LogEC50, increase in myocardial contractility (sarcomere shortening) (converted); for Sarcomere shortening, agent alone: agent alone (L-arginine 0.1 mM), n=3, species of myocytes not stated; for Effect on the BEC-induced increase in contractility: L-NAME 10^−4 M (0.1 mM), SMTC 10 μM. On the procedure: as §1, §2

Assay [3] deals with arginase. Briefly: Arginase activity in rat heart and isolated myocyte homogenates. The assay is classed as biochemical. Particulars: whole rat heart homogenate, dose-dependent. On the procedure:
(§3) Arginase Activity: Rat hearts and myocytes were homogenized in lysis buffer (50 mM Tris-HCl, pH 7.5, 0.1 mM EDTA and protease inhibitor) and centrifuged for 30 min at 14,000 g at 4° C. for an arginase activity assay as described previously (20).

Assay [4] has as its target T1, arginase (Rattus norvegicus, UniProt O08701).
T1 construct: Arginase activity is present in both whole rat heart (n=4) and isolated rat myocytes (n=3); from tissue; host or cells: Wistar rat heart tissue and freshly isolated rat cardiac myocytes (homogenates)
T1 sequence (O08701 23-354): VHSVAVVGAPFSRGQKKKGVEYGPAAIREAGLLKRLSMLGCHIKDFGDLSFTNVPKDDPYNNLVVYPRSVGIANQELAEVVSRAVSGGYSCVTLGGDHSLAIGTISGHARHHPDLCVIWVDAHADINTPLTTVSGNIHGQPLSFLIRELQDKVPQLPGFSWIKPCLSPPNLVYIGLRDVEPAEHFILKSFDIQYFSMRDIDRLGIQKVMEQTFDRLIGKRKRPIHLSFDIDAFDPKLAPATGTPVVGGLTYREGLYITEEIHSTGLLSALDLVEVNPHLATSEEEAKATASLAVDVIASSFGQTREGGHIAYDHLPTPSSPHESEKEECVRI
The description is as above. The assay is classed as biochemical. Particulars: isolated rat myocytes, dose-dependent. On the procedure:
as §3

The test system of assay [5] is NO production. Briefly: NO production (nitrite levels) in heart and isolated cardiac myocyte lysates. The assay is classed as biochemical, rat. Particulars: for NO production: BEC 10 μmol/L, n=6; for Effect on myocyte NO production: isolated myocytes, exogenous L-arginine 0.1 mM alone. On the procedure:
NOS Activity and NO Production: NO production was evaluated by measuring nitrite levels (Calbiochem) following pre-incubation of heart and myocytes with BEC (10 μmol/L) in PBS (pH 7.4) as previously described (52).

“Also recorded” adds a separate entry of the source.

`N[C@@H](CSCCB(O)O)C(=O)O` [BEC, S-(2-boronoethyl)-L-cysteine]: the “Emax, basal sarcomere shortening” value came out at 1.11±0.08 in assay [1] (myocytes from NOS1 deficient mice), 1.81±0.17 in assay [1] (myocytes from NOS3 deficient mice) and 1.97±0.24 in assay [1] (myocytes from wild type mice). In addition, the “Effect on contractility” value in assay [1] (myocytes from NOS1 deficient mice, increasing doses) is reported as “no effect”. For the same compound, the “Effect on sarcomere shortening” value in assay [1] (myocytes from NOS3 deficient mice, increasing doses) is reported as “dose dependently increased”; in assay [1] (myocytes from WT mice, increasing doses), “dose dependently increased”; in assay [2] (isolated rat myocytes, increasing doses), “dose dependently increased”. The “Contractility, fold change in sarcomere shortening” value in assay [2] (isolated rat myocytes, BEC 10^−5M alone (FIG. 4a)) came out at 2.1±0.14 fold change. In assay [2] (isolated rat myocytes, BEC alone, NOS1 inhibitor experiment (FIG. 5a)), the “Contractility (sarcomere shortening), fold change” value came out at 2.06±0.14. Further, the “Emax, increase in myocardial contractility (sarcomere shortening)” value in assay [2] (isolated rat myocytes) turned out to be 1.8±0.3 fold increase. The EC50 in assay [2] (isolated rat myocytes) is 1.58 µM. Further, the results for the “Arginase activity in presence of inhibitor” value in assay [3] and in assay [4] were “inhibitable; also recorded: inhibited” and “inhabitable; also recorded: inhibited”, respectively. The NO production was 16.7±1 μmol/mg protein in assay [5] (heart lysates) and 11.1±2.2 μmol/mg protein in assay [5] (isolated myocyte lysates).
Consider `COC(=O)[C@@H](N)CCCNC(=N)N[N+](=O)[O-]` [L-NAME], for which the “Sarcomere shortening, agent alone” value in assay [2] is 0.76±0.06 fold change. Also, in assay [2] (isolated rat myocytes), the “Effect on the BEC-induced increase in contractility” value is “completely abolished; also recorded: completely inhibited”.
For `N=C(N)NCCC[C@H](N)C(=O)O` [L-arginine], in assay [2], the “Sarcomere shortening, agent alone” value worked out at 1.1±0.05 fold change. In addition, the “Effect on myocyte NO production” value in assay [5] is reported as “did not effect”; in assay [5] (listed as L-Arginine), “no effect”.
On to `N=C(NO)NCC[C@H](N)C(=O)O` [Nor-NOHA, N-hydroxy-nor-L-arginine], for which the “Increase in contractility (sarcomere shortening)” value in assay [2] (isolated rat myocytes, Nor-NOHA dose response (FIG. 4b legend)) is 1.9±0.45 fold increase. For the same compound, in assay [2] (isolated rat myocytes), the “Emax, increase in myocardial contractility (sarcomere shortening)” value came out at 1.98±0.23 fold increase and the EC50 is 1.58 µM.
Consider `CSC(N)=NCCC[C@H](N)C(=O)O` [SMTC], for which, in assay [2] (isolated rat myocytes), the “Effect on the BEC-induced increase in contractility” value is “abolished; also recorded: inhibited”.
